Experimental data taken from patent publication US11576912B2, “Target genes in MYC-driven neoplasia” (The Board of Trustees of the Leland Stanford Junior …, priority 2017, dated 2023).

Experiments:
EC4 cells [1] = experiment: Flow cytometric analysis of apoptosis (7-AAD/Annexin V); format: cell-based, mouse; details: versus DMSO
Protocol: Flow Cytometric Analysis of Apoptosis For apoptosis staining, cells were stained with 7-AAD and PE-Annexin-V (Becton Dickinson) and analyzed on a FACScan flow cytometer following manufacturer's instructions. FACS data was analyzed with FlowJo software (Tree Star). The apoptotic cell populations were defined by positive staining of both Annexin-V and 7-AAD.

EC4 cells [2] = experiment: EU labeling and imaging of total RNA distribution (RNA export); format: cell-based, mouse; details: EC4 cells overexpressing MYC, 150 nM KPT-330, 5 h EU labeling, compared with DMSO controls
Protocol: EU-Labeling and Visualization of Total RNA EC4 cells were labeled with 1 mM 5-ethynyl uridine (EU) for 5h in the presence of 150 nM KPT-330 or vehicle (DMSO control) at 37 degrees and 5% CO2. Cells were then fixed with 4% formaldehyde in PBS at room temperature for 20 minutes, washed consecutively with PBS, 50 mM NH4Cl/PBS, PBS (10 minutes each) and permeabilized with 0.2% TritonX100/PBS. After washing with PBS, EU was labeled with Alexa-647-azide using the Click-IT imaging kit (Invitrogen) following the manufacturer's instructions. Images were acquired on a DMI 6000 B (Leica) epifluorescence microscope. Mean fluorescence intensities in regions of interest in the cytoplasm and in the nucleus omitting nucleoli were determined using ImageJ.

[3] = IC50 determination, CellTiter-Glo cell viability, cell lines with high MYC expression; format: cell-based, human and mouse; details: Mus musculus; range over MYC overexpressing cancer cell lines, 72 hours
Protocol: (§1) IC50 Determination Cells were seeded at a density of 1000-2000 cells/well in 96-well plates. Cells were treated with different concentrations of KPT-330 (1:3 dilution from 10 micromolar to 0.33 nanomolar) for 72 hours. MYC expression was shut off by treating the cells with doxycycline (100ng/ml). All experiments were performed in quadruplicates. Cell viability was determined using the CellTiter-Glo Luminescent Cell Viability Assay (Promega). The IC50 was calculated using the Prism software (GraphPad). The log-transformed concentration values and the normalized luminance data were fitted to a four-parameter logistic equation to derive the IC50 value.

[4] = IC50 determination, CellTiter-Glo cell viability, low MYC liver cancer cell lines and normal fibroblasts; format: cell-based; details: Homo sapiens; range over normal fibroblast cell line and liver cancer cell lines with low MYC expression, 72 hours
Protocol: as §1

[5] = tested on: primary liver tumors in the LAP-tTA/tet-O-MYC mouse model
Protocol: KPT-330 Treatment In Vivo and Monitoring the Tumor Size
The KPT-330 (Selleckchem) was dissolved in vehicle (1% Pluronic F-68 and 1% PVP-K29/32, 25 mg/kg) was administered by oral gavage to tumor-bearing mice three times a week for 6 doses total. A 7T MRI for small animals was used to image tumor both before and after treatment. Tumor volume was calculated based on the T2 weighted image stacks using the Osirix software. For short-term treatment, the mice were treated with either vehicle or KPT-330 for three doses and sacrificed the following day after the third dose.
Western Blot and Immunohistochemical Analysis
The following antibodies were used for Western blotting and IHC: MYC (9E10 for Western blot and Epitomics 1472-1 for IHC), Tubulin (Sigma), Cleaved caspase 3 and phospho-Histone H3 (Cell Signaling). Immunofluorescence or bright field pictures were taken with 20× objectives on a Leica DMI6000 B microscope and quantified using MetaMorph image analysis software.

[6] = short-term treatment, three doses

## O=C(/C=C\n1cnc(-c2cc(C(F)(F)F)cc(C(F)(F)F)c2)n1)NNc1cnccn1 [KPT-330]
EC4 cells [1]; EC4 cells with MYC OFF (doxycycline)
  increase in apoptosis: modest increase in apoptosis
EC4 cells [1]; EC4 cells with MYC overexpression (MYC ON)
  induction of tumor cell apoptosis: four-fold induction of tumor cell apoptosis
EC4 cells [2]
  RNA distribution in the cytoplasm: significantly reduced RNA distribution in the cytoplasm
  RNA nuclear-cytoplasmic ratio: increased RNA nuclear-cytoplasmic ratio
[3]
  IC50: 70 to 300 nM
[4]
  IC50: ≥ 300 nM
[5]; 25 mg/kg oral gavage three times a week, 6 doses, two weeks, MRI before and after
  reduction in tumor volume: more than 95%
[5]; H&E staining of tumor sections
  histological examination of tumor sections: only sporadic tumor cells left
[5]; mouse, in vivo
  proliferation or apoptosis in adjacent liver tissues (toxicity to normal hepatocytes): minimal toxicity to the normal hepatocytes
[5]; [6]
  tumor cell apoptosis by cleaved caspase-3 staining: significantly induced apoptosis
  tumor cell proliferation by phospho-histone H3 staining: completely suppressed the proliferation
[5]; two mice with smaller tumors, 6 doses, two weeks
  tumor regression according to MRI scan: complete tumor regression
